Source: PubChem BioAssay (NCI)
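Dose response: 5 concentrations. Exposure: 48 h. Format: 96-well plates. Endpoint: linear interpolation; highest concentration if not reached. Definition used: TGI = concentration required for complete inhibition of growth.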 Where a SMILES comes first, the peptide text is derived from it. The star is where a group is joined. Cbz = O=C(OCc1ccccc1)*

Legend:
Assay in all cases: DTP human tumour cell line panel, 48 h
[1] = system: A498 renal
[2] = system: DU-145 prostate
[3] = system: HCC-2998 colon
[4] = system: HCT-116 colon
[5] = system: HOP-92 NSCLC
[6] = system: HT29 colon
[7] = system: K-562 leukemia
[8] = system: MCF7 breast
[9] = system: NCI-H522 lung
[10] = system: SF-268 CNS
[11] = system: SK-MEL-2 melanoma
[12] = system: SK-MEL-5 melanoma
[13] = system: U251 CNS

Row | Structure (SMILES) | TGI [1] [µM] | TGI [2] [µM] | TGI [3] [µM] | TGI [4] [µM] | TGI [5] [µM] | TGI [6] [µM] | TGI [7] [µM] | TGI [8] [µM] | TGI [9] [µM] | TGI [10] [µM] | TGI [11] [µM] | TGI [12] [µM] | TGI [13] [µM]
1 | O=Cc1ccc(-c2ccc(-c3ccc(CO)s3)o2)s1 | 0.353 | > 71.6 | 18.3 | > 40.1 | 61.5 | > 53.2 | > 22.2 | > 100 | 47.7 | > 76.1 | 97 | 17.7 | > 42.1
2 | Oc1c(Br)ccc2cccnc12 | 51.8 | > 68.8 | > 100 | > 100 | 69.7 | > 35.8 | > 31.4 | 2.73 | 6.21 | > 100 | > 100 | > 39.2 | > 100
3 | O=C1/C(=C\c2cccc(Oc3ccccc3)c2)S(=O)(=O)C(c2ccccc2)N1c1cccc(Cl)c1 (centres undefined) | > 100 | > 100 | > 100 | > 100 | > 100 | > 100 | > 100 | > 100 | > 100 | > 100 | > 100 | > 100 | > 100
4 | CCOC(=O)CCC(NC(=O)OCc1ccccc1)C(=O)NC(CCC(=O)OCC)C(=O)OCC (centres undefined) (Cbz-Glu(OEt)-Glu(OEt)-OEt; configuration not given here) | > 100 | > 100 | > 100 | > 100 | > 100 | > 100 | > 100 | > 100 | > 100 | > 100 | > 100 | > 100 | > 100
5 | CCCCCCCCCCCC(=O)OC[C@@H](C[As](=O)(O)O)OC(=O)CCCCCCCCCCC | 24.3 | 36.6 | 20.1 | 21.7 | 4.44 | 25.3 | > 55.1 | 9.24 | 6.5 | > 32.2 | 7.48 | 3.91 | 4.42
6 | OC(C/C=N/N=C/CC(O)(C(F)(F)Cl)C(F)(F)Cl)(C(F)(F)Cl)C(F)(F)Cl | > 10 | > 10 | > 10 | > 10 | > 10 | > 10 | > 10 | > 10 | > 10 | > 10 | > 10 | > 10 | > 10
7 | COc1cccc(CC(=O)N2CCN(CCCc3ccccc3)CC2)c1 | > 100 | > 100 | > 100 | > 100 | > 100 | > 100 | > 100 | > 100 | > 100 | > 100 | > 100 | 77.1 | > 100
8 | O=C1OCC2OC(=O)c3cc(O)c(O)c(O)c3-c3c(O)c(O)c(O)c4c3C(=O)OC(C2OC(=O)c2cc(O)c(O)c(O)c2-c2c1cc(O)c(O)c2O)C1OC(=O)C2C4=C(O)C(=O)C23Oc2cc(O)c4c(c2[C@H]13)O[C@H](c1ccc(O)c(O)c1)[C@@H](O)C4 (some centres undefined) | > 100 | > 100 | > 100 | 40.3 | > 100 | 42.7 | 72.3 | 46.3 | 50.4 | 50.7 | 64.4 | 33.8 | 42.7
